In patent publication US7115753B2, “Triaryl cation antibiotics from environmental DNA” (Wisconsin Alumni Research Foundation, priority 2000, dated 2006):
Like-named read-outs stand apart in the source and are kept apart here. Marks after values point to notes of the source that are not given here.

Experiments:
Erwinia herbicola IRQ = test: Zone of inhibition assay; type: cell-based; conditions: 10 μl drop of 250 μg/ml in DMSO
Escherichia coli HS997 = test: Zone of inhibition assay; type: cell-based; conditions: 10 μl drop of 250 μg/ml in DMSO
[1] = tested on: Pseudomonas aeruginosa 9020; test: Zone of inhibition assay; type: cell-based; parameters: key: (+) 2 to 13 mm zone; (+/−) 1 mm zone; (−) no zone of inhibition; conditions: 10 μl drop of 250 μg/ml in DMSO
[2] = tested on: Salmonella typhimurium LT2; test: Zone of inhibition assay; type: cell-based; conditions: 10 μl drop of 250 μg/ml in DMSO
[3] = tested on: B. cereus var. mycoides 1003; type: cell-based, Bacillus cereus var. mycoides; conditions: 10 μl drop of 250 μg/ml in DMSO
[4] = tested on: Enterococcus faecalis 4025; test: Zone of inhibition assay; type: cell-based; parameters: key: (+) 2 to 13 mm zone; (+/−) 1 mm zone; (−) no zone of inhibition; conditions: 10 μl drop of 250 μg/ml in DMSO
[5] = tested on: Staphylococcus aureus 3001; test: Zone of inhibition assay; type: cell-based; conditions: 10 μl drop of 250 μg/ml in DMSO
[6] = tested on: Streptococcus pyogenes 8P01; test: Zone of inhibition assay; type: cell-based; conditions: 10 μl drop of 250 μg/ml in DMSO
[7] = tested on: Streptomyces griseus 6501; test: Zone of inhibition assay; type: cell-based; conditions: 10 μl drop of 250 μg/ml in DMSO
[8] = tested on: Candida guilliermondii Y001; test: Zone of inhibition assay; type: cell-based; conditions: 10 μl drop of 250 μg/ml in DMSO
[9] = tested on: Fusarium solani (f. sp. glycine) 90.1; test: Zone of inhibition assay (fungal plug on plate); type: cell-based; parameters: key: (+) 2 to 13 mm zone; (+/−) 1 mm zone; (−) no zone of inhibition; conditions: DMSO-dissolved compound on plate, 23° C., 7 days
Description: (§1) Pythium ultimum (1033) and Fusarium solani f sp. glycine (90.1) were grown on ¼- strength potato dextrose agar (29) at 23° C. Plugs were cut from the fungal lawn using a #5 cork borer and placed onto the center of a fresh plate containing the DMSO-dissolved compounds. The plates were incubated 7 days, or until the organism covered the plate, at 23° C., in the dark.

Pythium ultimum 1033 = test: Zone of inhibition assay (fungal plug on plate); type: cell-based; parameters: key: (+) 2 to 13 mm zone; (+/−) 1 mm zone; (−) no zone of inhibition; conditions: DMSO-dissolved compound on plate, 23° C., 7 days
Description: as §1

Bacillus subtilis = test: Minimum inhibitory concentration (MIC) in broth culture; type: cell-based; conditions: synthetic compound
Description: (§2) Overnight cultures were prepared as for the plate inhibition assays. Culture optical densities (O.D.) were normalized to 0.15 (150 μl path length) by performing 1:1 serial dilutions (150 μl transfer into 150 μl diluent) in a 96 well microtiter plate. Inoculum cell concentrations (colony forming units/ml) were subsequently determined by performing 1:5 serial dilution series (50 μl transfer into 200 μl diluent) in a second microtiter plate. Three dilutions were plated ([…]) by mixing 50 μl of a given dilution into 20 ml of cooled BHI/YE medium and quickly pouring into a petri plate. Test compounds, both natural and synthetic, were dissolved in DMSO (2.0 mg/ml) and diluted into BHI/YE medium to a concentration of 106 μg/ml (5.35% v/v DMSO). Samples of each of the test compounds (150 μl each) were added to 3 separate wells, each containing 150 μl of BHI/YE medium (no DMSO). […] Three plates were prepared for each test organism (n=3 […]=9 per compound, per organism). Additional wells were included in duplicate on each plate for color subtraction, +/-DMSO, and minus compound controls (n=2 […]=6 per control, per organism). Ten μl of normalized inoculum was added per well. Absorbance at 590 nm was read using a […] Victor® Microtiter plate reader; double circular mixing was performed for 10 seconds prior to reading at times 0, 30 and 60 hours. The plates were statically incubated at 28° C. when not being read. Absorbance values were imported into Microsoft Excel® and analyzed graphically.

Erwinia herbicola = test: as above; type: cell-based; conditions: synthetic compound
Description: as §2

Salmonella typhimurium = test: as above; type: cell-based; conditions: synthetic compound
Description: as §2

Staphylococcus aureus = test: as above; type: cell-based
Description: as §2

Streptococcus pyogenes = test: as above; type: cell-based; conditions: synthetic compound
Description: as §2

Row | Compound | Antibiotic activity (zone of inhibition) (Erwinia herbicola IRQ; Natural compound) | Antibiotic activity (zone of inhibition) (Erwinia herbicola IRQ; Synthetic compound) | Antibiotic activity (zone of inhibition) (Escherichia coli HS997; Natural compound) | Antibiotic activity (zone of inhibition) (Escherichia coli HS997; Synthetic compound) | Antibiotic activity (zone of inhibition) ([1]; Natural compound) | Antibiotic activity (zone of inhibition) ([1]; Synthetic compound) | Antibiotic activity (zone of inhibition) ([2]; Natural compound) | Antibiotic activity (zone of inhibition) ([2]; Synthetic compound) | Antibiotic activity (zone of inhibition) ([3]; Natural compound) | Antibiotic activity (zone of inhibition) ([3]; Synthetic compound) | Antibiotic activity (zone of inhibition) ([4]; Natural compound) | Antibiotic activity (zone of inhibition) ([4]; Synthetic compound) | Antibiotic activity (zone of inhibition) ([5]; Natural compound) | Antibiotic activity (zone of inhibition) ([5]; Synthetic compound) | Antibiotic activity (zone of inhibition) ([6]; Natural compound) | Antibiotic activity (zone of inhibition) ([6]; Synthetic compound) | Antibiotic activity (zone of inhibition) ([7]; Natural compound) | Antibiotic activity (zone of inhibition) ([7]; Synthetic compound) | Antibiotic activity (zone of inhibition) ([8]; Natural compound) | Antibiotic activity (zone of inhibition) ([8]; Synthetic compound) | also measured
1 | c1ccc2c([C+](c3c[nH]c4ccccc34)c3c[nH]c4ccccc34)c[nH]c2c1 [Turbomycin A, turbomycin A] | + ((+) 2 to 13 mm zone) | +^a ((+) 2 to 13 mm zone) | +/− ((+/−) 1 mm zone) | +/−^b ((+/−) 1 mm zone) | − | −^c | + ((+) 2 to 13 mm zone) | + ((+) 2 to 13 mm zone) | + ((+) 2 to 13 mm zone) | + ((+) 2 to 13 mm zone) | − | − | + ((+) 2 to 13 mm zone) | + ((+) 2 to 13 mm zone) | + ((+) 2 to 13 mm zone) | + ((+) 2 to 13 mm zone) | + ((+) 2 to 13 mm zone) | + ((+) 2 to 13 mm zone) | +/− ((+/−) 1 mm zone) | +/− ((+/−) 1 mm zone) | Antibiotic activity (zone of inhibition) ([9]; Natural compound): −; Antibiotic activity (zone of inhibition) ([9]; Synthetic compound): −; Antibiotic activity (zone of inhibition) (Pythium ultimum 1033; Natural compound): −; Antibiotic activity (zone of inhibition) (Pythium ultimum 1033; Synthetic compound): −; minimum inhibitory concentration (MIC) (Bacillus subtilis): 6.2 µg/mL; minimum inhibitory concentration (MIC) (Erwinia herbicola): 6.2 µg/mL; minimum inhibitory concentration (MIC) (Salmonella typhimurium): 12.5 µg/mL; MIC of natural product compared with synthetic compound (Staphylococcus aureus; natural product, same experiment as synthetic compound, S. aureus): same MIC; minimum inhibitory concentration (MIC) (Staphylococcus aureus; synthetic compound, broth culture, Staphylococcus aureus): 6.2 µg/mL; minimum inhibitory concentration (MIC) (Streptococcus pyogenes): 6.2 µg/mL
2 | c1ccc([C+](c2c[nH]c3ccccc23)c2c[nH]c3ccccc23)cc1 [Turbomycin B, turbomycin B] | + ((+) 2 to 13 mm zone) | + ((+) 2 to 13 mm zone) | +/− ((+/−) 1 mm zone) | +/− ((+/−) 1 mm zone) | − | − | + ((+) 2 to 13 mm zone) | + ((+) 2 to 13 mm zone) | + ((+) 2 to 13 mm zone) | + ((+) 2 to 13 mm zone) | − | − | + ((+) 2 to 13 mm zone) | + ((+) 2 to 13 mm zone) | + ((+) 2 to 13 mm zone) | + ((+) 2 to 13 mm zone) | + ((+) 2 to 13 mm zone) | + ((+) 2 to 13 mm zone) | +/− ((+/−) 1 mm zone) | +/− ((+/−) 1 mm zone) | Antibiotic activity (zone of inhibition) ([9]; Natural compound): −; Antibiotic activity (zone of inhibition) ([9]; Synthetic compound): −; Antibiotic activity (zone of inhibition) (Pythium ultimum 1033; Natural compound): −; Antibiotic activity (zone of inhibition) (Pythium ultimum 1033; Synthetic compound): −
